“Also recorded” adds a separate entry of the source.
Columns and labels:
[1] = tested on: C3; assay: Hemolysis assay measuring C3 activity in serum of rats given CVF; type: in vivo, rat
Excerpt: A variety of methods well-known in the art can be used to determine at least one activity of a complement component. As described in the Examples Section below, the hemolysis assay can be used to measure the activity of C3 in the serum from blood samples. In the hemolysis assay, erythrocytes are sensitized by coating these erythrocytes with antibodies against red blood cells. Next, the sensitized erythrocytes, C3-depleted serum, and a blood sample to be tested for C3 activity are combined and incubated. During incubation, the complement pathway proceeds on the surface of the erythorcytes using complement components from the C3-depleted serum and C3 from the blood sample. This pathway can result in the formation of a sufficient number of MAC pores to induce erythorcyte lysis and hemoglobin release. The optical density at 540 run is then measured to determine the quantity of free hemoglobin in solution as a result of erythrocyte lysis. Since erythrocyte lysis is a result of complement activation and the presence of C3, the optical density at 540 nm is a measure of the activity of C3 in the blood sample.
To determine the effect of CVF on complement C3 activity, naïve animals were injected with CVF on days 0, 3, and 6. C3 activity was measured using the hemolysis assay before and after CVF injections as described below.
The timeline for the general method of surgery followed by CVF injection is outlined in FIG. 8. Spinal nerve ligation (SNL) was performed on Sprague-Dawley rats as described above in Example 1. On day 0, SNL surgery was performed on 20 rats and sham surgery was performed on 20 rats. At days 23 and 26 post surgery, 10 SNL and 10 sham animals (designated herein as SNL-CVF and Sham-CVF, respectively) were injected (ip) with CVF (350 units/kg). In addition, as controls, 10 SNL and 10 sham animals (designated herein as SNL-saline and Sham-saline, respectively) were given saline injections (ip). Five animals from each group were terminated on day 29. The remaining five animals were terminated on day 39. Pain behavior was measured using the paw pressure test as described in Example 1 above. C3 activity was measured by the hemolysis assay before and after animals received CVF as described below.
The sensitization of sheep erythrocytes and the hemolysis assay to measure C3 activity were performed according to the Quidel Technical Bulletin entitled Measurement of C3 function in non-primate sera by hemolytic assay (Quidel Corporation, Santa Clara, Calif.). References within this protocol are the following: DeSautel and Brode, Laryngoscope 1999, 109:1674-8; Kirshfink, The Complement System 1998, Rother and Till eds, Springer Verlag Berlin Heidelberg, 522-547; Mollnes, Complement and Complement Receptors 1997, Weir ed, 78.1-78.6; Porcel et al., J. Immunol Method. […]

[2] = tested on: spinal nerve ligation (SNL) model of neuropathic pain; assay: Paw pressure test (paw withdrawal threshold) in the SNL model of neuropathic pain; type: in vivo, rat
Excerpt: Rats having the L5-L6 spinal nerves ligated (SNL) according to the method of Kim and Chung, Pain 1992; 50:355-63 were used in this experiment. Briefly, nerve injury was induced by tight ligation of the left L5 and L6 spinal nerves, producing symptoms of neuropathic pain as described below. The advantage of this model is that it allows the investigation of dorsal root ganglia that are injured (L5 and L6) versus dorsal root ganglia that are not injured (L4). Thus, it is possible to see changes in gene expression specifically in response to nerve injury.
Surgery was performed under isoflurane/O2 inhalation anesthesia. Following induction of anesthesia, a 3 cm incision was made just lateral to the spinal vertebrae. The left paraspinal muscles were separated from the spinous process at the L4-S2 levels. The L6 transverse process was carefully removed with a pair of small rongeurs to visually identify the L4-L6 spinal nerves. The left L5 and L6 spinal nerves were isolated and tightly ligated with 7-0 silk suture. A complete hemostasis was confirmed, and the wound was sutured using […] sutures, such as 4-0 Vicryl.
Mechanical sensitivity was assessed using the paw pressure test. This test measures mechanical hyperalgesia. Hind paw withdrawal thresholds (“PWT”) (measured in grams) in response to a noxious mechanical stimulus were determined using an analgesymeter (Model 7200, commercially available from Ugo Basile of Italy), as described in Stein, Biochemistry & Behavior 1988; 31: 451-455. […] PWT was determined once for each rat at each time point, and only the injured ipsilateral paw (i.e., the hind paw on the same side of the animal as the ligation in SNL animals, or the side of the animal where the nerve was exposed but not injured in sham-operated animals) was used in the test. […]
The timeline for the general method of surgery followed by CVF injection is outlined in FIG. 8. […] Pain behavior was measured using the paw pressure test as described in Example 1 above. C3 activity was measured by the hemolysis assay before and after animals received CVF as described below.

CVF
C3 complement activity levels on day 39 ([1]; CVF 350 units/kg ip on days 23 and 26 post surgery, day 39, FIG. 10C): returned to pre-surgery and day 23 levels
C3 activity levels relative to pre-surgery and day 23 ([1]; CVF treated animals (350 units/kg ip on days 23 and 26 post surgery), days 28 and 29, FIG. 10B): below 20%
C3 activity (hemolysis assay) after CVF treatment ([1]; SNL and sham surgery rats injected with CVF or saline, FIGS. 10B and 10C): C3 activity decreases after CVF treatment in both SNL and sham surgery animals
C3 activity (hemolysis assay, optical density at 540 nm) after CVF treatment ([1]; naïve rats, CVF given on days 0, 3 and 6, measured at 0, 3, 6, 7, 8 and 12 days, FIG. 10A): return to pre-dosing levels by day 8; also recorded: C3 activity decreases
Pain tolerance (withdrawal threshold to a mechanical stimulus) versus SNL animals injected with saline ([2]; SNL rats treated with CVF compared to SNL saline control): chronic pain is alleviated; also recorded: higher pain tolerance
Pain behavior (paw withdrawal threshold) of SNL-CVF animals by day 29 ([2]; SNL rats, CVF 350 units/kg ip on days 23 and 26 post surgery, day 29, FIG. 9): not significantly different than Sham-saline or Sham-CVF animals
Pain behavior (paw withdrawal threshold) of SNL-CVF animals by day 31 ([2]; SNL rats, CVF 350 units/kg ip on days 23 and 26 post surgery, day 31, FIG. 9): returned to day 23 levels

Reference: patent publication US20050222027A1, “Modulation of complement to treat pain” (Euro-Celtique S.A., priority 2003, published 2005)
